According to patent US20230277486A1, “COMPOSITIONS FOR THE TREATMENT OF NON-ARTICULAR CARTILAGE-[…] CONDITIONS” (priority 2019, published 2023):

Legend:
Format in all cases: cell-based
[1] = test system: Primary human mesenchymal stem cells (MSC); assay: Calcium deposition in MSC cultures, Alizarin red stain at 21 days; settings: three cell lines, PCA 200 μM to 2000 μM, FIG. 8
Description: (§1) Cells: Primary human mesenchymal stem cells (MSC) were obtained from RoosterBio Inc., Frederick, Md.; ATCC, Manassas, Va.; and Cell Applications, San Diego, Calif.
(§2) Cell culture: MSC were expanded in culture, using the protocol provided by the respective suppliers, before being subjected to the experimental conditions.
(§3) Treatment: MSC were cultured in supplier-provided culture media and exposed to Protocatechuic acid (PCA) for 14 or 21 days at concentrations ranging from 200 μM to 2000 μM (2 mM). MSC were cultured without any PCA as negative control. To serve as positive control, MSC were cultured without any PCA in osteogenic media (Human Osteoblast Differentiation Media, Cell Applications, Catalog number: 417D-250). Osteogenic media is commonly used to induce osteogenesis. Each experiment was conducted in triplicate. Media was changed twice a week.
Calcium deposition: MSC cultures were tested for calcium deposition using Alizarin red stain at 21 days.

[2] = test system: Primary human mesenchymal stem cells (MSC); assay: qPCR osteogenic gene expression in MSC cultures exposed to PCA; settings: three cell lines, PCA 200 μM to 2000 μM, 14 or 21 days
Description: as §1, §2, §3
Gene expression: Osteogenic gene expression was measured using qPCR on mRNA extracted from MSC cultures. Gene expression was computed as fold-change relative to the control group (MSC cultured without any PCA). MSC cultured in osteogenic media was used as positive control as this protocol is commonly used to induce osteogenesis.

[3] = test system: Primary human osteoblasts; assay: qPCR gene expression in osteoblast cultures exposed to PCA
Description: (§4) Cells: Primary human osteoblasts were obtained from Cell Applications, San Diego, Calif.
(§5) Cell culture: Osteoblasts were expanded in culture using the protocol provided by Cell Applications. Human Osteoblast Basal Media was supplemented with Human Osteoblast Growth Supplement (Cell Applications) containing 0.15 g/L calcium. Human Osteoblast Differentiation Media was purchased from Cell Applications, containing 0.20 g/L calcium.
(§6) Treatment: Osteoblasts were cultured in Human Osteoblast Basal Media and exposed to Protocatechuic acid (PCA) for up to 12 days at concentrations ranging from 1 μmolar to 100 μM. Osteoblasts were cultured without any PCA as negative control. Osteoblasts were cultured without any PCA in osteogenic media (Human Osteoblast Differentiation Media) as positive control (osteogenic media induces osteogenesis in osteoblasts). Each experiment was conducted in triplicate. Media were changed every 3 days.
Gene expression: Pro-osteogenic and anti-osteogenic gene expression was measured using qPCR on mRNA extracted from osteoblast cultures. Gene expression was computed as fold-change relative to control group (osteoblasts cultured without any PCA).

[4] = test system: Primary human osteoblasts; assay: Calcium deposition in osteoblast cultures, Alizarin red stain; settings: PCA 1 μM to 100 μM, 12 days of culture
Description: as §4, §5, §6
Calcium deposition: Osteoblast cultures were tested for calcium deposition using Alizarin red stain.

For `O=C(O)c1ccc(O)c(O)c1` [PCA, protocatechuic acid], the deposition of calcium [1] was “visibly increased the deposition of calcium in one of the three cell lines”, the RUNX2 expression ([2]; FIG. 5) was “increased RUNX2 at most dose levels” and the “RUNX2 expression versus positive control (osteogenic media)” value ([2]; FIG. 5) was “mostly higher than the positive control”. For the same compound, the “expression of alkaline phosphatase (TNAP)” value ([2]; FIG. 6) was “increased the expression of alkaline phosphatase relative to negative control but not greater than the osteogenic conditions”, the “expression of bone sialoprotein (IBSP)” value ([2]; FIG. 7) was “did not increase” and the “expression of osteopontin (SPP1)” value ([2]; versus positive control (osteogenic media), FIG. 4) was “even higher than that measured in the positive control”. For the same compound, the “IL-1β gene expression (anti-osteogenic gene)” value ([3]; PCA 1 μM to 100 μM, FIG. 2) was “increasing”, the “IL-6 gene expression (anti-osteogenic gene)” value ([3]; PCA 1 μM to 100 μM, FIG. 2) was “increasing” and the “MMP-1 gene expression (anti-osteogenic gene)” value ([3]; PCA 1 μM to 100 μM, FIG. 2) was “suppressing”. For the same compound, the “TNF-α gene expression (anti-osteogenic gene)” value ([3]; PCA 1 μM to 100 μM, FIG. 2) was “suppressing”, the “BMP-6 expression, dose dependence” value ([3]; PCA 1 μM to 100 μM, FIG. 3) was “dose-dependent effect” and the “osteogenic gene expression (IBSP, SPP1, TNAP, RunX2)” value ([3]; PCA 1 μM to 100 μM, up to 12 days, fold-change relative to control without PCA, FIG. 1) was “dose-dependent effect on all osteogenic genes tested”. The “expression of osteogenic genes versus positive control (osteogenic media)” value ([3]; PCA 100 μmolar (highest dose)) was “even higher than that measured in the positive control”, the “BMP-6 expression relative to negative control” value ([3]; PCA 100 μmolar, FIG. 3) was “greater than 2 fold” and the calcium deposition [4] was “did not increase deposition of calcium by detectable amounts”.
